# Laboratory results from ChEMBL document CHEMBL1201862, “PubChem BioAssay data set” (2004).
# The source made the active and inactive calls.
# How the values were obtained:
# [1] = target: G-protein coupled receptor 55 (Homo sapiens, UniProt Q9Y2T6); assay: blockers of GPR55 signalling, imaged – imaging, image-based, counter-screen for GPR35 antagonist project, SAR follow-up (AID 2397); assay type: functional
# [2] = target: T1, Tyrosine-protein phosphatase non-receptor type 22 (Homo sapiens, UniProt Q9Y2R2); assay: inhibition of lymphoid tyrosine phosphatase LYP – biochemical, pCAP fluorogenic substrate, fluorescence, set 3, SAR follow-up (AID 449727); assay type: functional
# T1 sequence (Q9Y2R2 whole entry): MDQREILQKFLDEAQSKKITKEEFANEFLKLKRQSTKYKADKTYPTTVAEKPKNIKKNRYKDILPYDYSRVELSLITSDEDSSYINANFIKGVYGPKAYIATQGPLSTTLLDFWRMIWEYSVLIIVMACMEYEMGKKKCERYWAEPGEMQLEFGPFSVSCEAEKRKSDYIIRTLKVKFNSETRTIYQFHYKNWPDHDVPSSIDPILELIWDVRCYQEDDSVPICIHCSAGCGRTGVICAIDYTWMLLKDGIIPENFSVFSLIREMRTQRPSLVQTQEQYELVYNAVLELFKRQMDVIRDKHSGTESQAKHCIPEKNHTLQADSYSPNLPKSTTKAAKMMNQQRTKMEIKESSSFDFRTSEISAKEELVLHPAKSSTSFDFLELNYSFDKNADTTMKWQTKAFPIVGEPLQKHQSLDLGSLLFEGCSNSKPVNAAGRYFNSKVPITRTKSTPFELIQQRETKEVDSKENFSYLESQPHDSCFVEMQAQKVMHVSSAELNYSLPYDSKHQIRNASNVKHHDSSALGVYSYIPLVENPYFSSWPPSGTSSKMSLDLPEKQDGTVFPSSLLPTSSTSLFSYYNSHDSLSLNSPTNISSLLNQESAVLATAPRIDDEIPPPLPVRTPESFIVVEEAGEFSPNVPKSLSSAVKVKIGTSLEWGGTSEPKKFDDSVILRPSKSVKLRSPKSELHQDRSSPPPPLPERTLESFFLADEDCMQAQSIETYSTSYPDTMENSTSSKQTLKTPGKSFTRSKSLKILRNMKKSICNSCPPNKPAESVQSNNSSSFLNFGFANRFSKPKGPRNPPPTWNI
# [3] = target: T1, Tyrosine-protein phosphatase non-receptor type 22; assay: SAR LYP1 Fluorescent Assay using OMFP substrate for In Vitro dose response studies - Set 3. [Related pubchem assays (depositor defined):AID1779, AID1784, AID2140, AID2686]; assay type: functional
# [4] = target: T2, G-protein coupled receptor 35 (Homo sapiens, UniProt Q9HC97); assay: inhibition of zaprinast-stimulated GPR35 beta-arrestin translocation – imaging, U2OS, beta-arrestin-GFP, zaprinast agonist, primary screen (AID 2058); assay type: functional;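 further: antagonist potency meaning inhibition of agonist-induced arrestin redistribution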
# T2 sequence (Q9HC97 whole entry): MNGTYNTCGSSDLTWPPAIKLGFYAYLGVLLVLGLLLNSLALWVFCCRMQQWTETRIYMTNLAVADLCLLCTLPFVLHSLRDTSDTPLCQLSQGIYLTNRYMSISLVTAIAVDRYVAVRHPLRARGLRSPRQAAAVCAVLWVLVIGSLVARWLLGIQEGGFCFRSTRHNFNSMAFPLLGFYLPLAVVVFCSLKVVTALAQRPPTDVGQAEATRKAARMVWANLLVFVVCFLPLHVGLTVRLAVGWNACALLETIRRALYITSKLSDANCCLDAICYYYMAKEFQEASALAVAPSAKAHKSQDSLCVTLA
# [5] = target: 26S proteasome non-ATPase regulatory subunit 14 (Homo sapiens, UniProt O00487); assay: inhibition of proteasome subunit RPN11 – biochemical, fluorescence polarization, uHTS hits, confirmation (AID 602368); assay type: functional
# 26S proteasome non-ATPase regulatory subunit 14, sequence (O00487 whole entry): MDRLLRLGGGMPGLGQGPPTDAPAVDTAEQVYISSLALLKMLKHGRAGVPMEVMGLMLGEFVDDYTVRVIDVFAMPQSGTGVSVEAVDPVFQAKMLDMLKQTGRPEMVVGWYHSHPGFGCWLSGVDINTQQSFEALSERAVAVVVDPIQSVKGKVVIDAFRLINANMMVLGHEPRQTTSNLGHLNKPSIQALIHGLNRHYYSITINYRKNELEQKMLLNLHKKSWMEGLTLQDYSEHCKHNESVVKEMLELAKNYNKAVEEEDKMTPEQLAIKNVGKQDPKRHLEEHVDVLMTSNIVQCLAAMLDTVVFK
# Prothrombin = Prothrombin (Bos taurus, UniProt P00735); assay: thrombin protease inhibitors – biochemical, fluorescence polarization, uHTS hits, dose response (AID 602369); assay type: functional
# [6] = target: T2, G-protein coupled receptor 35; assay: SAR Analysis for the identification of Selective Antagonists of ERK1/2 Activity in GPR35-Overexpressing U2OS Cells. [Related pubchem assays: 2079, 2058 ]; assay type: functional, cell-based
# [7] = target: T3, Tyrosine-protein phosphatase non-receptor type 7 (Homo sapiens, UniProt P35236); assay: inhibition of hematopoietic tyrosine phosphatase HePTP – biochemical, set 2, SAR follow-up (AID 449736); assay type: functional
# T3 sequence (P35236 whole entry): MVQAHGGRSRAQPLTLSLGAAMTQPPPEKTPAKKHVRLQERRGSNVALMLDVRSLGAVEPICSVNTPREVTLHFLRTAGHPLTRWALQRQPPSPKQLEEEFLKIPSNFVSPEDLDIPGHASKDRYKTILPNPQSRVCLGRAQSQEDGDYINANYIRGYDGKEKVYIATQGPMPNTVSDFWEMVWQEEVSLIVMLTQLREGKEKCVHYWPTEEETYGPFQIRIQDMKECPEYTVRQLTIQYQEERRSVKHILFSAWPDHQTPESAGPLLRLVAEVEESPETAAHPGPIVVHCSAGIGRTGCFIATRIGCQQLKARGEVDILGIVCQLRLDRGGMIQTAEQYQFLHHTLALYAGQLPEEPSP
# [8] = target: 72 kDa type IV collagenase (Homo sapiens, UniProt P08253); assay: Dose Response validation of uHTS RPN11 inhibitor hits using a MMP-2 Fluorescence assay.; assay type: functional
# 72 kDa type IV collagenase, sequence (P08253 whole entry): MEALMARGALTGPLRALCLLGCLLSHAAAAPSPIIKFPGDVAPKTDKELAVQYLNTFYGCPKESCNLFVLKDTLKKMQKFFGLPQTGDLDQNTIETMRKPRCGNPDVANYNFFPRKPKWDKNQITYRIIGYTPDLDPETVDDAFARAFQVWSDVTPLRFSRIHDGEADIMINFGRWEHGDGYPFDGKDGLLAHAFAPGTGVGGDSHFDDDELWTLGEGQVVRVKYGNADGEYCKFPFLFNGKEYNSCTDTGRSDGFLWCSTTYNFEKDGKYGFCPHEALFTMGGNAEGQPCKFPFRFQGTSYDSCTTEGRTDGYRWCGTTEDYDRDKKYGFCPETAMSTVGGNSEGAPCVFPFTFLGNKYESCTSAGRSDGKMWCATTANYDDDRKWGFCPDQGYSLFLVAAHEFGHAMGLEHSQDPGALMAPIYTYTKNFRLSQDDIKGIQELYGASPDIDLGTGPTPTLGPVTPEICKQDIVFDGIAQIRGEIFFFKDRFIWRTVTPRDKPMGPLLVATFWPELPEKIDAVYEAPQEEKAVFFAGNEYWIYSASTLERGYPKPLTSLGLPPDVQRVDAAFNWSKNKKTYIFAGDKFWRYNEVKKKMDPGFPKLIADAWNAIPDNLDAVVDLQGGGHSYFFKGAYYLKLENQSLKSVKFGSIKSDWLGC
# [9] = target: Tyrosine-protein phosphatase non-receptor type 12 (Homo sapiens, UniProt Q05209); assay: SAR Selectivity Analysis of small molecule inhibitors of PEST using pCAP in a fluorescence assay. [Related pubchem assays (depositor defined):AID1779, AID1784, AID2135]; assay type: functional
# [10] = target: Lysine-specific demethylase 4C (Homo sapiens, UniProt Q9H3R0); assay: inhibition of JMJD2C H3K9me3 demethylation – biochemical, DELFIA europium, cherry-picked samples, dose response (AID 488835); assay type: functional
# Lysine-specific demethylase 4C, sequence (Q9H3R0 whole entry): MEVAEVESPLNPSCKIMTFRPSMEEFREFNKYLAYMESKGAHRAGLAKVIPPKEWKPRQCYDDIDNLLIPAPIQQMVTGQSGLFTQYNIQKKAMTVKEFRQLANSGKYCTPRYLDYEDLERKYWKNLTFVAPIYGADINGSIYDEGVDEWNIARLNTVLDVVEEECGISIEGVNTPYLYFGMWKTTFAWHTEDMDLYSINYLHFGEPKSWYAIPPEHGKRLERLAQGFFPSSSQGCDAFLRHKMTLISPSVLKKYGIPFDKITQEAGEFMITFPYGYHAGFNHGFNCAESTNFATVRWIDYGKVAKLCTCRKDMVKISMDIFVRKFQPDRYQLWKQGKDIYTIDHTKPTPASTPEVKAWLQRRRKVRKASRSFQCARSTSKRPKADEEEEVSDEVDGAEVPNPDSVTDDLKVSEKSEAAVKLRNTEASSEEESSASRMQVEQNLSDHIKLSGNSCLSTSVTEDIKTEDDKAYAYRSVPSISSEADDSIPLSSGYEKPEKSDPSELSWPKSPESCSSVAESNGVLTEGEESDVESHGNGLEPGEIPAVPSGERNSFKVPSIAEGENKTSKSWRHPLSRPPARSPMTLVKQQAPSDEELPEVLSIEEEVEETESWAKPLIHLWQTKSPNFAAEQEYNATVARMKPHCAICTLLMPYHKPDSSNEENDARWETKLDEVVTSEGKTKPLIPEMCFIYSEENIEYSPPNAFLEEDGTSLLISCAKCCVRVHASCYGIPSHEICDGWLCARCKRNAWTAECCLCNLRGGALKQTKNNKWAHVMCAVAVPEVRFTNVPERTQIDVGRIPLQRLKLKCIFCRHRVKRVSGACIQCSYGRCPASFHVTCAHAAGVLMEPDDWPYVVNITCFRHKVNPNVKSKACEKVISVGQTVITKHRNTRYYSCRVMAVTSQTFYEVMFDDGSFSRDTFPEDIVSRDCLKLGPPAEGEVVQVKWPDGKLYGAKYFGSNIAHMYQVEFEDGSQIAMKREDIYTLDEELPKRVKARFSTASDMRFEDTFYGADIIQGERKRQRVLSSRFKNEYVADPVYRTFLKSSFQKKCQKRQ
# [11] = target: T4, Small ubiquitin-related modifier 1 (Homo sapiens, UniProt P63165); assay: SUMO1 protein-protein binding blockers, potency – biochemical, FRET, dose response (AID 624383); assay type: functional; settings: read-out: IC50_Mean
# T4 sequence (P63165 whole entry): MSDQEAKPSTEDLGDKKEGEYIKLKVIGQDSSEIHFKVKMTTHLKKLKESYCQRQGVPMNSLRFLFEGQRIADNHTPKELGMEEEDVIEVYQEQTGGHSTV
# [12] = target: Induced myeloid leukemia cell differentiation protein Mcl-1 (Homo sapiens, UniProt Q07820); assay: blockers of MCL1 binding to BIM peptide – biochemical, fluorescence polarization, BIM-BH3 peptide, 1536-well, dose response (AID 2217)
# Induced myeloid leukemia cell differentiation protein Mcl-1, sequence (Q07820 whole entry): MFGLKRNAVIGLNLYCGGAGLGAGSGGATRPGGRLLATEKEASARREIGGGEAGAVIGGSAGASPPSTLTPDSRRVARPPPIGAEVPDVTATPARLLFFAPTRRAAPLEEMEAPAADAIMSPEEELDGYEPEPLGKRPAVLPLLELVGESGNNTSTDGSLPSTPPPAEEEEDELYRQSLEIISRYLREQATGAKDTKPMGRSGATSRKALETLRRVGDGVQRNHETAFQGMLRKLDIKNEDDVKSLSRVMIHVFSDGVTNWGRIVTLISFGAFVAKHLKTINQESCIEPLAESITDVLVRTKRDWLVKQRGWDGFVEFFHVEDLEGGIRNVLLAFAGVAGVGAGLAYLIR
# [13] = target: T4, Small ubiquitin-related modifier 1; assay: SUMO1 protein interaction blockers, potency – biochemical, fluorescence polarization, uHTS hits, dose response (AID 624382); assay type: functional; settings: read-out: IC50_Mean
# [14] = target: T5, Carboxy-terminal domain RNA polymerase II polypeptide A small phosphatase 1 (Homo sapiens, UniProt Q9GZU7); assay: CTDSP1 inhibitors, concentration-response, biochemical, absorbance readout, ultra-high-throughput screen actives (AID 540297); assay type: functional
# T5 sequence (Q9GZU7 whole entry): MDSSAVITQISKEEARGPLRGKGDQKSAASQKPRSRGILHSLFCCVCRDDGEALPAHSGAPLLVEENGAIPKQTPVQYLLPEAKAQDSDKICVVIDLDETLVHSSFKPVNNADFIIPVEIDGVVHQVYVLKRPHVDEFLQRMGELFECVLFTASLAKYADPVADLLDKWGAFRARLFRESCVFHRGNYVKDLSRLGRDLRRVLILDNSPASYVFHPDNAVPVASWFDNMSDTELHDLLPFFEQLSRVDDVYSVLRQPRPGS
# [15] = target: Beta-adrenergic receptor kinase 1 (Homo sapiens, UniProt P25098); assay: blockers of aptamer binding to GRK2 – biochemical, flow cytometry beads, FAM-aptamer, powder set 1, dose response (AID 588720)
# Beta-adrenergic receptor kinase 1, sequence (P25098 whole entry): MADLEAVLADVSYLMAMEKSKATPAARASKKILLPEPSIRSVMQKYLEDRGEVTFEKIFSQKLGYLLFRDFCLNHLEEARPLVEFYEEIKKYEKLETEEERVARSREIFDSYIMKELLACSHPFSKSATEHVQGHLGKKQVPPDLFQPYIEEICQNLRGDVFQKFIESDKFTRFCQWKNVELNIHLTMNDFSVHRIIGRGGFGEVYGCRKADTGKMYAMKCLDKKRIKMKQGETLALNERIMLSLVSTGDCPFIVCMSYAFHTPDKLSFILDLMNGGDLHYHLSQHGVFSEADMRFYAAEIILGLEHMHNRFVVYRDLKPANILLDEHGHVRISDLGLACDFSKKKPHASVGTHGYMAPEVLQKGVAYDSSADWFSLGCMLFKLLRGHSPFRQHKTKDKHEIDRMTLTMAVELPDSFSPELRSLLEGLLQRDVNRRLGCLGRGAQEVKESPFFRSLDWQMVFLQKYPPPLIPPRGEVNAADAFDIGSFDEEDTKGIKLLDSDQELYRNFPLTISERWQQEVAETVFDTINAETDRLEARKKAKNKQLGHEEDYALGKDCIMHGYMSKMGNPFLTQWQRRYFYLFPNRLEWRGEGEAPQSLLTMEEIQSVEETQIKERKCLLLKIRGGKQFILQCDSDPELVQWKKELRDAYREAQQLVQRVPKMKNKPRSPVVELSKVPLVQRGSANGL
# Bcl-2-like protein 1 = Bcl-2-like protein 1 (Homo sapiens, UniProt Q07817); assay: blockers of BCLXL peptide binding – biochemical, fluorescence polarization, 1536-well, selectivity assay for MCL1 inhibitor project, dose response (AID 2218)
# Bcl-2-like protein 1, sequence (Q07817 whole entry): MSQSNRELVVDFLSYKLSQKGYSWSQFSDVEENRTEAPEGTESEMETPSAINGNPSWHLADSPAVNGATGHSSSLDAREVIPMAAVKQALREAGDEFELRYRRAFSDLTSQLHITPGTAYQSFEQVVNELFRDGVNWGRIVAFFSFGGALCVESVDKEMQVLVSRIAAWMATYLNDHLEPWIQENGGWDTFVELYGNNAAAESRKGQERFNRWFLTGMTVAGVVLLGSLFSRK
# [16] = target: T6, Apoptotic protease-activating factor 1 (Homo sapiens, UniProt O14727); assay: SAR analysis of small molecule Activators of Apaf-1 in a Fluorescent assay.; assay type: functional; settings: read-out: EC50_Mean;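 further: caspase-3 cleavage of fluorogenic Rh110 DEVD substrate downstream of apoptosome activation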
# T6 sequence (O14727 whole entry): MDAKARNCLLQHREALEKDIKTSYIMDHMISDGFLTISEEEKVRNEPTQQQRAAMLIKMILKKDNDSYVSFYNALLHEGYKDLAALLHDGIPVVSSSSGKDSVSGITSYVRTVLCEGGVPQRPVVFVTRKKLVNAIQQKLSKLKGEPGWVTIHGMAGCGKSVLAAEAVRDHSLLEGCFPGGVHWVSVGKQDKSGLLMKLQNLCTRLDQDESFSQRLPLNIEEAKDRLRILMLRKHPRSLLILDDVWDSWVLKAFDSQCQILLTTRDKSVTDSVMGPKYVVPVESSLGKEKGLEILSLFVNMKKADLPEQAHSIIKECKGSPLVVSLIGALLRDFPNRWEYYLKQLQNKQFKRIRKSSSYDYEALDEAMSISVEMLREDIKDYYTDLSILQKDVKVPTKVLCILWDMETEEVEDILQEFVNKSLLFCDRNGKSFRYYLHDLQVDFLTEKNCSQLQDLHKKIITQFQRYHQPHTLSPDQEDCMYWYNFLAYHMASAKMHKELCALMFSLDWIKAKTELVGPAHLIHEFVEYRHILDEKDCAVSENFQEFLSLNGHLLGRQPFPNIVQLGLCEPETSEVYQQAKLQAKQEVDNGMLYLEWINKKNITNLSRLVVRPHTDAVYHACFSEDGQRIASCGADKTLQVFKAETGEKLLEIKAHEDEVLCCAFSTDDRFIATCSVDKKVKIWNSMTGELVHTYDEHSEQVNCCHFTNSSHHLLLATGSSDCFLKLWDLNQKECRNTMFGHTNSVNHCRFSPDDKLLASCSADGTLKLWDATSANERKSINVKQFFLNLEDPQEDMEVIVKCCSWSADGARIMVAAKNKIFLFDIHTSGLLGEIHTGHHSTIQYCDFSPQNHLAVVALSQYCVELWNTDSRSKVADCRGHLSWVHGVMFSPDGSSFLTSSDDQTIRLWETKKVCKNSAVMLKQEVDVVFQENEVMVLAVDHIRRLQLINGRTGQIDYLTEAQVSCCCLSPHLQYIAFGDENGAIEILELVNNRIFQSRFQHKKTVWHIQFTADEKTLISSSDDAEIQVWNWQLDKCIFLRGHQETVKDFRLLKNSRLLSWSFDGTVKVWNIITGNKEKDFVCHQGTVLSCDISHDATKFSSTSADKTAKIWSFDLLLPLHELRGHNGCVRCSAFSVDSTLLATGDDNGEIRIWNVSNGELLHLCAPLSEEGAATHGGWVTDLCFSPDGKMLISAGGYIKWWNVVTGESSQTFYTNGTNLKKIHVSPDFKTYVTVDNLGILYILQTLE
# Phosphomannomutase 2 = Phosphomannomutase 2 (Homo sapiens, UniProt O15305); assay: Counter screen SAR assay for PMM2 inhibitors via a fluorescence intensity assay. [Related pubchem assays (depositor defined):AID1545, AID1574]
# Phosphomannomutase 2, sequence (O15305 whole entry): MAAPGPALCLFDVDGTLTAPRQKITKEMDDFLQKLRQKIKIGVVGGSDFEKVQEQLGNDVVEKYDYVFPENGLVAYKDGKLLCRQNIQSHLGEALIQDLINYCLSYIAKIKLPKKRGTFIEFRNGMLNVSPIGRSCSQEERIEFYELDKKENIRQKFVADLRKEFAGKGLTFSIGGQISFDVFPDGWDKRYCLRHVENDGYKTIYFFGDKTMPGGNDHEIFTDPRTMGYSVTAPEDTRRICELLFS
# [17] = target: T7, Mannose-6-phosphate isomerase (Homo sapiens, UniProt P34949); assay: phosphomannose isomerase inhibition – biochemical, fluorescence intensity, confirmation (AID 1535)
# T7 sequence (P34949 whole entry): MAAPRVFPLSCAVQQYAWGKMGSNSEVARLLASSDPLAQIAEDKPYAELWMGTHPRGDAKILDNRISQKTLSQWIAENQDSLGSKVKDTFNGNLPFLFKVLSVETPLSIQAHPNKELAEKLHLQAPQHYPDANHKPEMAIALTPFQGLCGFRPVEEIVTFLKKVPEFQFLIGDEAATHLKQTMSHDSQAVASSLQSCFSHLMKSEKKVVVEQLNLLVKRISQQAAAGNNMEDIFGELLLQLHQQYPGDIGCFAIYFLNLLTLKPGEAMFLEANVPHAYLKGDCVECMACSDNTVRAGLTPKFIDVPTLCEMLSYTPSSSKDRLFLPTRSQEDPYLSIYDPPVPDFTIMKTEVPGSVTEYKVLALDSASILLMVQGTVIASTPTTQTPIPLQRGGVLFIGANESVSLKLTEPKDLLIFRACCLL
# [18] = target: UDP-galactopyranose mutase (Mycobacterium tuberculosis, UniProt P9WIQ1); assay: Inhibitors of Mycobacterium tuberculosis UDP-galactopyranose mutase (UGM) enzyme Measured in Biochemical System Using Plate Reader - 2105-02_Inhibitor_Dose_CherryPick_Activity. [Related pubchem assays (depositor defined):AID504439]
# UDP-galactopyranose mutase, sequence (P9WIQ1 whole entry): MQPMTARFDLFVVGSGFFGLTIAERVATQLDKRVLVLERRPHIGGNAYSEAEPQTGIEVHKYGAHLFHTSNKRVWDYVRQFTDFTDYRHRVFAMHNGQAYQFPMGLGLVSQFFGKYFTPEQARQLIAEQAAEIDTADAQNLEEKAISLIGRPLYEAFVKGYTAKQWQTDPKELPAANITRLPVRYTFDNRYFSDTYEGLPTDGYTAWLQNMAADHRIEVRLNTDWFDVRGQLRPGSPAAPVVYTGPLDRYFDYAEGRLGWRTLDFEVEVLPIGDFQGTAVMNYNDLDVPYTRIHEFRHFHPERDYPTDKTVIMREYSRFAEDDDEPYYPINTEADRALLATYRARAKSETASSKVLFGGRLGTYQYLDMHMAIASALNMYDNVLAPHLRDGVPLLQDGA
# [19] = Luminescence Cell-Based Dose Retest to Confirm Inhibitors of Cancer Stem Cells. [Related pubchem assays (depositor defined):AID2717, AID2721]; assay type: functional; settings: Homo sapiens
# [20] = viability loss of HMLE_sh_eGFP cells – cell-based, luminescence, counter-screen for HMLE_sh_ECad selective toxicity project, dose response (AID 463074); assay type: functional, Homo sapiens;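 further: HMLE human mammary epithelial cells expressing control shRNA against eGFP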
# G-protein coupled receptor 55, sequence (Q9Y2T6 whole entry): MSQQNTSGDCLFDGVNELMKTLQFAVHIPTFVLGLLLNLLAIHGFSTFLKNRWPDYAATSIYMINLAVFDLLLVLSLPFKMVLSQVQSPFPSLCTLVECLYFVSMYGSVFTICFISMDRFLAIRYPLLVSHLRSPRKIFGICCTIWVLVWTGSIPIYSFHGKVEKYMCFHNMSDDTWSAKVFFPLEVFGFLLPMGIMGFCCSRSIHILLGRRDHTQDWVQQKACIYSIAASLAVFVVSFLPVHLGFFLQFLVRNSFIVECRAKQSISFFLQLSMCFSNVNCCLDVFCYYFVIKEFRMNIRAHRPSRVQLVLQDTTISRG
structure (smiles),measurement,setting,value
O=C(CCCN1C(=O)/C(=C/c2ccc3c(c2)OCO3)SC1=S)Nc1ccc(C(=O)O)cc1,IC50,[1],20 µM (inactive)
same,IC50,[2],47 µM (active)
same,IC50,[3],91.4 µM (active)
same,IC50,[4],0.563 µM (active)
same,IC50,[5],40.7 µM (active)
same,IC50,Prothrombin,38.9 µM (active)
same,IC50,[6],4.07 µM (active)
same,IC50,[7],1.99 µM (active)
same,IC50,[8],43 µM (active)
same,IC50,[9],12.1 µM (active)
c1cc2c(cc1-c1csc(NNC3=NCCCCC3)n1)OCCO2,AC50,[10],17 µM (active)
COc1ccc(Cl)cc1NC(=O)CCS(=O)(=O)c1ccc(Br)cc1,IC50,[11],5.02 µM (active)
same,IC50,[12],11.4 µM (not active)
same,IC50,[5],10.9 µM (active)
same,IC50,Prothrombin,> 100 µM (inactive)
same,IC50,[13],> 66.6 µM (inactive)
same,IC50,[8],> 100 µM (inactive)
same,IC50,[14],4.16 µM (active)
same,EC50,[15],0.779 µM (active)
same,IC50,Bcl-2-like protein 1,32.2 µM (not active)
same,EC50,[16],17.4 µM (active)
COc1cc([N+](=O)[O-])ccc1/N=c1\ssnc1Cl,IC50,Phosphomannomutase 2,> 100 µM (inactive)
same,IC50,[17],3.25 µM (active)
O=C(NCc1ccc(F)cc1)c1cccc2c1C(=O)c1ccc(N3CCC(Cc4ccccc4)CC3)cc1S2(=O)=O,AC50,[18],5.84 µM (active)
CN1CCN(/N=C/c2ccc(OCc3ccccc3)cc2)CC1,AC50,[19],5.25 µM (active)
same,AC50,[20],56 µM (active)
